In patent US11370778B2, “Bis(pentahydroxyhexyl)amino substituted 2-{[(3-amino-pyrazin-2-yl)formamido]methyl}-1H-1,3-benzodiazol-3-ium derivatives as ENaC inhibitors for treating respiratory diseases” (ENTERPRISE THERAPEUTICS LIMITED, priority 2017, dated 2022) one finds concentration data, which are given here for six molecules.

Structures can show the parent of a compound that is named as a salt.

This data set can be described thus: Bronchoalveolar lavage: compound levels in BAL after intratracheal administration. It counts as in vivo. The settings on record: bronchoalveolar lavage fluid (BAL), other: intratracheal, 0.1 mg/kg, rat, 0.1 mg/mL solution in 5% dextrose, 1 mL/Kg, lungs lavaged after 6 hours, LC/MS/MS. The procedure: Example 9—Bronchoalveolar Lavage A 0.1 mg/mL solution of ENaC inhibitor in 5% dextrose was administered intratracheally to a rat weighing 225-250 g. A volume of 1 mL/Kg was used. After 6 hours, lungs were lavaged with 3×4 mL of sterile saline. A 1 mL aliquot was subsequently snap frozen. Lungs were excised, weighed and snap frozen. Compound levels in the BAL and lung tissue were subsequently determined using LC/MS/MS bioanalysis.

In turn, `CCn1c(CNC(=O)c2nc(Cl)c(N)nc2N)[n+](CC)c2ccc(C(=O)N3CCC(CN(C[C@H](O)[C@@H](O)[C@H](O)[C@H](O)CO)C[C@H](O)[C@@H](O)[C@H](O)[C@H](O)CO)CC3)cc21` [Example 3, 6-[4-({bis[(2S,3R,4R,5R)-2,3,4,5,6-pentahydroxyhexyl]amino}methyl)piperidine-1-carbonyl]-2-{[(3,5-diamino-6-chloropyrazin-2-yl)formamido]methyl}-1,3-diethyl-1H-1,3-benzodiazol-3-ium trifluoroacetic acid trifluoroacetate] displayed a concentration at 6 h of 210 ng/mL.

Take `CCn1c(CNC(=O)c2nc(Cl)c(N)nc2N)[n+](CC)c2ccc(C(=O)NCCc3ccc(-c4ccc(CCN(C[C@H](O)[C@@H](O)[C@H](O)[C@H](O)CO)C[C@H](O)[C@@H](O)[C@H](O)[C@H](O)CO)cc4)cc3)cc21` [Example 7, 6-({2-[4′-(2-{bis[(2S,3R,4R,5R)-2,3,4,5,6-pentahydroxyhexyl]amino}ethyl)-[1,1′-biphenyl]-4-yl]ethyl}carbamoyl)-2-{[(3,5-diamino-6-chloropyrazin-2-yl)formamido]methyl}-1,3-diethyl-1H-1,3-benzodiazol-3-ium trifluoroacetic acid trifluoroacetate]: the concentration at 6 h amounted to 645 ng/mL. `CCn1c(CNC(=O)c2nc(Cl)c(N)nc2N)[n+](CC)c2ccc(C(=O)N3CCC(N(C[C@H](O)[C@@H](O)[C@H](O)[C@H](O)CO)C[C@H](O)[C@@H](O)[C@H](O)[C@H](O)CO)CC3)cc21` [Example 1, 6-(4-{bis[(2S,3R,4R,5R)-2,3,4,5,6-pentahydroxyhexyl]amino}piperidine-1-carbonyl)-2-{[(3,5-diamino-6-chloropyrazin-2-yl)formamido]methyl}-1,3-diethyl-1H-1,3-benzodiazol-3-ium trifluoroacetic acid trifluoroacetate]: the concentration at 6 h came out at 222 ng/mL.

`CCn1c(CNC(=O)c2nc(Cl)c(N)nc2N)[n+](CC)c2ccc(C(=O)NCCN(C[C@H](O)[C@@H](O)[C@H](O)[C@H](O)CO)C[C@H](O)[C@@H](O)[C@H](O)[C@H](O)CO)cc21` [Example 5, 6-[(2-{bis[(2S,3R,4R,5R)-2,3,4,5,6-pentahydroxyhexyl]amino}ethyl)carbamoyl]-2-{[(3,5-diamino-6-chloropyrazin-2-yl)formamido]methyl}-1,3-diethyl-1H-1,3-benzodiazol-3-ium trifluoroacetic acid trifluoroacetate] returned a concentration at 6 h of 471 ng/mL. Molecule `CCn1c(CNC(=O)c2nc(Cl)c(N)nc2N)[n+](CC)c2ccc(C(=O)N3CC[C@@H](N(C[C@H](O)[C@@H](O)[C@H](O)[C@H](O)CO)C[C@H](O)[C@@H](O)[C@H](O)[C@H](O)CO)C3)cc21` [Example 4, 6-[(3R)-3-{bis[(2S,3R,4R,5R)-2,3,4,5,6-pentahydroxyhexyl]amino}pyrrolidine-1-carbonyl]-2-{[(3,5-diamino-6-chloropyrazin-2-yl)formamido]methyl}-1,3-diethyl-1H-1,3-benzodiazol-3-ium trifluoroacetic acid trifluoroacetate] registered a concentration at 6 h of 524 ng/mL.

For `CCn1c(CNC(=O)c2nc(Cl)c(N)nc2N)[n+](CC)c2ccc(C(=O)NCCOCCOCCOCCN(C[C@H](O)[C@@H](O)[C@H](O)[C@H](O)CO)C[C@H](O)[C@@H](O)[C@H](O)[C@H](O)CO)cc21` [Example 6, 2-{[(3,5-diamino-6-chloropyrazin-2-yl)formamido]methyl}-1,3-diethyl-6-{[(14S,15R,16R,17R)-14,15,16,17,18-pentahydroxy-12-[(2S,3R,4R,5R)-2,3,4,5,6-pentahydroxyhexyl]-3,6,9-trioxa-12-azaoctadecan-1-yl]carbamoyl}-1H-1,3-benzodiazol-3-ium trifluoroacetic acid trifluoroacetate], the concentration at 6 h was determined as 251 ng/mL.
